Experimental data taken from ChEMBL document CHEMBL1147010, “Aziridine-2,3-dicarboxylate inhibitors targeting the major cysteine protease of Trypanosoma brucei as lead trypanocidal agents” (Bioorg Med Chem Lett, 2006).
≈ marks a conversion by molar mass, not a printed value. Calls of active or inactive are those of the source. No cut-off for these calls is given here.

Legend:
Rhodesain = Rhodesain (Trypanosoma brucei rhodesiense, UniProt Q95PM0); test: Inhibition of Trypanosoma brucei rhodesiense rhodesain
[1] = tested on: Trypanosoma brucei brucei; test: Trypanocidal activity against Trypanosoma brucei brucei after 48 hrs; assay type: functional, organism-based
J774 [2] = test: Cytotoxicity against J774.1 cell line after 48 hrs; assay type: functional, cell-based; conditions: Mus musculus, J774, 48 h
[3] = molecular target: Rhodesain (Trypanosoma brucei rhodesiense) (UniProt Q95PM0); test: Inhibition of Trypanosoma brucei rhodesiense rhodesain at 140 uM
J774 [4] = test: Selectivity index, IC50 for J774.1/IC50 for Trypanosoma brucei brucei; assay type: functional

Sequence of Rhodesain (Trypanosoma brucei rhodesiense) (Q95PM0 1-450): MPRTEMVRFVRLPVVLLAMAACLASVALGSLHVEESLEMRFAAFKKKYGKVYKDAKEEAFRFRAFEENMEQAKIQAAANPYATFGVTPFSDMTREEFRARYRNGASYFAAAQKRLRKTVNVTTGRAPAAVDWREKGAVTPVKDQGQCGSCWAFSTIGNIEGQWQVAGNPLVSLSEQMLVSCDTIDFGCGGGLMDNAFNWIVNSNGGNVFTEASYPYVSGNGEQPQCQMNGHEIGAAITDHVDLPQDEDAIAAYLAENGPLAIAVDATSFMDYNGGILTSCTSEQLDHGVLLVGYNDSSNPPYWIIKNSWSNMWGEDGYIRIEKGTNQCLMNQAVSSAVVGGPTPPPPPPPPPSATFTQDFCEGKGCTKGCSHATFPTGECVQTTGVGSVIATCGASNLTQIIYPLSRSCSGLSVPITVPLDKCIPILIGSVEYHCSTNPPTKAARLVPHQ
Sequence of Rhodesain (Q95PM0 whole entry): as the sequence (Q95PM0 1-450) above

SMILES: CCOC(=O)[C@@H]1[C@@H](C(=O)OCC)N1C(=O)[C@@H]1CCCN(C(=O)[C@H](CC(C)C)NC(=O)OC(C)(C)C)C1
- Ki (Rhodesain): 1 µM
- IC50 [1]: > 100 µM
- IC50 (J774 [2]): > 100 µM

SMILES: CC(C)C[C@@H](NC(=O)OC(C)(C)C)C(=O)N1CCC[C@H](C(=O)N2[C@H](C(=O)O)[C@H]2C(=O)O)C1
- inhibition [3]: inactive

SMILES: C[C@@H](NC(=O)[C@@H](Cc1ccccc1)NC(=O)OC(C)(C)C)C(=O)N1[C@H](C(=O)OCc2ccccc2)[C@H]1C(=O)OCc1ccccc1
- Ratio IC50 (J774 [4]): >3.8
- Ki (Rhodesain): 3.9 µM
- IC50 [1]: 25.8 µM
- IC50 (J774 [2]): > 100 µM

SMILES: CC(C)C[C@@H](NC(=O)OC(C)(C)C)C(=O)N1CCC[C@H]1C(=O)N1[C@H](C(=O)OCc2ccccc2)[C@H]1C(=O)OCc1ccccc1
- Ratio IC50 (J774 [4]): >2.9
- Ki (Rhodesain): 1.1 µM
- IC50 [1]: 34.3 µM
- IC50 (J774 [2]): > 100 µM

SMILES: CC(C)C[C@H](NC(=O)OC(C)(C)C)C(=O)N1CCC(C(=O)N2[C@H](C(=O)O)[C@H]2C(=O)O)CC1
- inhibition [3]: inactive

SMILES: CC(C)C[C@H](NC(=O)OC(C)(C)C)C(=O)N1CCC[C@H](C(=O)N2[C@H](C(=O)O)[C@H]2C(=O)O)C1
- inhibition [3]: inactive

SMILES: CC(C)C[C@H](NC(=O)OC(C)(C)C)C(=O)N1CCC[C@@H](C(=O)N2[C@H](C(=O)OCc3ccccc3)[C@H]2C(=O)OCc2ccccc2)C1
- Ratio IC50 (J774 [4]): >3.9
- Ki (Rhodesain): 0.6 µM
- IC50 [1]: 25.6 µM
- IC50 (J774 [2]): > 100 µM

SMILES: CCOC(=O)[C@H]1[C@H](C(=O)OCC)N1C(=O)[C@@H]1CCN1C(=O)[C@H](CC(C)C)NC(=O)OC(C)(C)C
- Ratio IC50 (J774 [4]): >4.8
- Ki (Rhodesain): 3.1 µM
- IC50 [1]: 20.6 µM
- IC50 (J774 [2]): > 100 µM

SMILES: CC(C)(C)OC(=O)NCC(=O)N1CCC[C@@H](C(=O)N2[C@H](C(=O)O)[C@H]2C(=O)O)C1
- inhibition [3]: inactive

SMILES: CCOC(=O)[C@H]1[C@H](C(=O)OCC)N1C(=O)C1CCN(C(=O)[C@H](CC(C)C)NC(=O)OC(C)(C)C)CC1
- Ki (Rhodesain): 3.3 µM
- IC50 [1]: > 100 µM
- IC50 (J774 [2]): > 100 µM

SMILES: CCOC(=O)[C@H]1[C@H](C(=O)OCC)N1C(=O)CCCCCNC(=O)CCCC[C@@H]1SC[C@@H]2NC(=O)N[C@@H]21
- Ki (Rhodesain): 0.6 µM
- IC50 [1]: > 100 µM
- IC50 (J774 [2]): > 100 µM

SMILES: C[C@H](NC(=O)[C@H](Cc1ccccc1)NC(=O)OC(C)(C)C)C(=O)N1[C@H](C(=O)O)[C@H]1C(=O)O
- Ki (Rhodesain): 0.5 µM

SMILES: CC(C)C[C@H](NC(=O)OC(C)(C)C)C(=O)N1CCC[C@H](C(=O)N2[C@H](C(=O)OCc3ccccc3)[C@H]2C(=O)OCc2ccccc2)C1
- Ratio IC50 (J774 [4]): >3.9
- Ki (Rhodesain): 0.6 µM
- IC50 [1]: 25.6 µM
- IC50 (J774 [2]): > 100 µM

SMILES: CCOC(=O)[C@H]1[C@H](C(=O)OCC)N1C(=O)[C@H]1CCN1C(=O)[C@H](CC(C)C)NC(=O)OC(C)(C)C
- Ratio IC50 (J774 [4]): >4.8
- Ki (Rhodesain): 3.1 µM
- IC50 [1]: 20.6 µM
- IC50 (J774 [2]): > 100 µM

SMILES: CC(C)C[C@H](NC(=O)OC(C)(C)C)C(=O)N1CC[C@@H]1C(=O)N1[C@H](C(=O)OCc2ccccc2)[C@H]1C(=O)OCc1ccccc1
- Ratio IC50 (J774 [4]): 1.2
- Ki (Rhodesain): 0.8 µM
- IC50 [1]: 30.8 µM
- IC50 (J774 [2]): 37.2 µM

SMILES: CC(C)C[C@@H](NC(=O)OC(C)(C)C)C(=O)N1CCC[C@H](C(=O)N2[C@H](C(=O)OCc3ccccc3)[C@H]2C(=O)OCc2ccccc2)C1
- Ratio IC50 (J774 [4]): >2.9
- Ki (Rhodesain): 0.7 µM
- IC50 [1]: 34 µM
- IC50 (J774 [2]): > 100 µM

SMILES: CCOC(=O)[C@@H]1[C@@H](C(=O)OCC)N1C(=O)[C@@H]1CN1C(=O)[C@@H](CC(C)C)NC(=O)OC(C)(C)C
- Ratio IC50 (J774 [4]): >3.5
- Ki (Rhodesain): 1.6 µM
- IC50 [1]: 28.3 µM
- IC50 (J774 [2]): > 100 µM

SMILES: CC1CS(=O)(=O)CCN1/N=C/c1ccc([N+](=O)[O-])o1 (stereo not given) [NIFURTIMOX]
- Ratio IC50 (J774 [4]): >58
- IC50 [1]: 3.4 µM
- MIC [1]: 200 µM (≈ 57.5 µg/mL)
- IC50 (J774 [2]): > 200 µM

SMILES: CC(C)C[C@H](NC(=O)OC(C)(C)C)C(=O)N1CCC[C@H]1C(=O)N1[C@H](C(=O)OCc2ccccc2)[C@H]1C(=O)OCc1ccccc1
- Ratio IC50 (J774 [4]): >11.3
- Ki (Rhodesain): 2.3 µM
- IC50 [1]: 11.1 µM
- MIC [1]: 125 µM (≈ 77.7 µg/mL)
- IC50 (J774 [2]): > 125 µM

SMILES: CCOC(=O)[C@@H]1[C@@H](C(=O)OCC)N1C(=O)[C@H]1CCCN(C(=O)[C@H](CC(C)C)NC(=O)OC(C)(C)C)C1
- Ki (Rhodesain): 1 µM
- IC50 [1]: > 100 µM
- IC50 (J774 [2]): > 100 µM

SMILES: CC(C)C[C@@H](NC(=O)OC(C)(C)C)C(=O)N1CCC[C@@H](C(=O)N2[C@H](C(=O)OCc3ccccc3)[C@H]2C(=O)OCc2ccccc2)C1
- Ratio IC50 (J774 [4]): >2.9
- Ki (Rhodesain): 0.7 µM
- IC50 [1]: 34 µM
- IC50 (J774 [2]): > 100 µM

SMILES: CC(C)(C)OC(=O)NCC(=O)N1CCC[C@@H](C(=O)N2[C@H](C(=O)OCc3ccccc3)[C@H]2C(=O)OCc2ccccc2)C1
- Ratio IC50 (J774 [4]): >2.7
- Ki (Rhodesain): 1.1 µM
- IC50 [1]: 36.4 µM
- IC50 (J774 [2]): > 100 µM

SMILES: CC(C)C[C@H](NC(=O)OC(C)(C)C)C(=O)N1CC[C@H]1C(=O)N1[C@H](C(=O)OCc2ccccc2)[C@H]1C(=O)OCc1ccccc1
- Ratio IC50 (J774 [4]): 1.2
- Ki (Rhodesain): 0.8 µM
- IC50 [1]: 30.8 µM
- IC50 (J774 [2]): 37.2 µM

SMILES: CC(C)C[C@@H](NC(=O)OC(C)(C)C)C(=O)N1CCC[C@@H]1C(=O)N1[C@H](C(=O)OCc2ccccc2)[C@H]1C(=O)OCc1ccccc1
- Ratio IC50 (J774 [4]): >2.8
- Ki (Rhodesain): 2.8 µM
- IC50 [1]: 35.2 µM
- IC50 (J774 [2]): > 100 µM

SMILES: CCOC(=O)[C@@H]1[C@@H](C(=O)OCC)N1C(=O)[C@@H]1CCCN1C(=O)[C@H](CC(C)C)NC(=O)OC(C)(C)C
- Ki (Rhodesain): 3.1 µM
- IC50 [1]: > 100 µM
- IC50 (J774 [2]): > 100 µM

SMILES: CC(C)(C)OC(=O)NCC(=O)N1CCC[C@@H]1C(=O)N1[C@H](C(=O)OCc2ccccc2)[C@H]1C(=O)OCc1ccccc1
- Ki (Rhodesain): 1.6 µM
- IC50 [1]: > 100 µM
- IC50 (J774 [2]): > 100 µM

SMILES: CC(C)(C)OC(=O)NCC(=O)N1CCCC[C@H]1C(=O)N1[C@H](C(=O)OCc2ccccc2)[C@H]1C(=O)OCc1ccccc1
- Ki (Rhodesain): 0.7 µM
- IC50 [1]: 27.6 µM

SMILES: C[C@@H](NC(=O)[C@H](Cc1ccccc1)NC(=O)OC(C)(C)C)C(=O)N1[C@H](C(=O)OCc2ccccc2)[C@H]1C(=O)OCc1ccccc1
- Ratio IC50 (J774 [4]): >3.2
- Ki (Rhodesain): 1.2 µM
- IC50 [1]: 30.5 µM
- IC50 (J774 [2]): > 100 µM

SMILES: C[C@H](NC(=O)[C@H](Cc1ccccc1)NC(=O)OC(C)(C)C)C(=O)N1[C@H](C(=O)OCc2ccccc2)[C@H]1C(=O)OCc1ccccc1
- Ratio IC50 (J774 [4]): >3.7
- Ki (Rhodesain): 1.9 µM
- IC50 [1]: 26.7 µM
- IC50 (J774 [2]): > 100 µM

SMILES: C[C@@H](NC(=O)[C@@H](Cc1ccccc1)NC(=O)OC(C)(C)C)C(=O)N1[C@H](C(=O)O)[C@H]1C(=O)O
- Ki (Rhodesain): 5 µM

SMILES: C[C@H](NC(=O)[C@@H](Cc1ccccc1)NC(=O)OC(C)(C)C)C(=O)N1[C@H](C(=O)O)[C@H]1C(=O)O
- Ki (Rhodesain): 0.1 µM

SMILES: CC(C)(C)OC(=O)NCC(=O)N1CCC[C@H]1C(=O)N1[C@H](C(=O)OCc2ccccc2)[C@H]1C(=O)OCc1ccccc1
- Ki (Rhodesain): 3.1 µM
- IC50 [1]: > 100 µM
- IC50 (J774 [2]): > 100 µM

SMILES: CC(C)C[C@H](NC(=O)OC(C)(C)C)C(=O)N1CCC[C@H]1C(=O)N1[C@@H](C(=O)OCc2ccccc2)[C@@H]1C(=O)OCc1ccccc1
- Ratio IC50 (J774 [4]): >11.5
- Ki (Rhodesain): 0.5 µM
- IC50 [1]: 10.9 µM
- MIC [1]: 125 µM (≈ 77.7 µg/mL)
- IC50 (J774 [2]): > 125 µM

SMILES: CC(C)(C)OC(=O)NCC(=O)N1CCC[C@H]1C(=O)N1[C@H](C(=O)O)[C@H]1C(=O)O
- Ki (Rhodesain): 0.9 µM
- IC50 [1]: > 100 µM
- IC50 (J774 [2]): > 100 µM

SMILES: CC(C)(C)OC(=O)NCC(=O)N1CCC[C@H](C(=O)N2[C@H](C(=O)OCc3ccccc3)[C@H]2C(=O)OCc2ccccc2)C1
- Ratio IC50 (J774 [4]): >2.7
- Ki (Rhodesain): 1.1 µM
- IC50 [1]: 36.4 µM
- IC50 (J774 [2]): > 100 µM

SMILES: CCOC(=O)[C@H]1[C@H](C(=O)OCC)N1C(=O)[C@H]1CCCN(C(=O)[C@H](CC(C)C)NC(=O)OC(C)(C)C)C1
- Ki (Rhodesain): 1.9 µM
- IC50 [1]: > 100 µM
- IC50 (J774 [2]): > 100 µM

SMILES: CCOC(=O)[C@H]1[C@H](C(=O)OCC)N1C(=O)[C@@H]1CCCN(C(=O)[C@H](CC(C)C)NC(=O)OC(C)(C)C)C1
- Ki (Rhodesain): 1.9 µM
- IC50 [1]: > 100 µM
- IC50 (J774 [2]): > 100 µM

SMILES: CC(C)C[C@H](NC(=O)OC(C)(C)C)C(=O)N1CCC[C@@H]1C(=O)N1[C@H](C(=O)OCc2ccccc2)[C@H]1C(=O)OCc1ccccc1
- Ratio IC50 (J774 [4]): >3.2
- Ki (Rhodesain): 1.2 µM
- IC50 [1]: 31.4 µM
- IC50 (J774 [2]): > 100 µM

SMILES: C[C@@H](NC(=O)[C@H](Cc1ccccc1)NC(=O)OC(C)(C)C)C(=O)N1[C@H](C(=O)O)[C@H]1C(=O)O
- Ki (Rhodesain): 0.8 µM

SMILES: CCOC(=O)[C@@H]1[C@@H](C(=O)OCC)N1C(=O)C1CCN(C(=O)[C@H](CC(C)C)NC(=O)OC(C)(C)C)CC1
- Ki (Rhodesain): 1.4 µM
- IC50 [1]: > 100 µM
- IC50 (J774 [2]): > 100 µM
